# From paper PMC6277767, “Broad and Region-Specific Impacts of the Synthetic Cannabinoid CP 55,940 in Adolescent and Adult Female Mouse Brains” (Frontiers in Molecular Neuroscience, 2018)
# System: CD1 female mouse brain lipidome
# Experiment: Brain-region lipid levels (HPLC/MS/MS lipidomics) 2 h after single i.p. 3 mg/kg CP 55,940 vs vehicle
# Type: in vivo
# Parameters: N-arachidonoyl phenylalanine level, Mean / N-stearoyl tryptophan level, Mean / N-stearoyl proline level, Mean / N-stearoyl leucine level, Mean / N-stearoyl phenylalanine level, Mean / N-stearoyl serine level, Mean / N-stearoyl methionine level, Mean: unit: moles per gram
# Details: hypothalamus
# Method: The Bloomington Institutional Animal Care and Use Committee of Indiana University reviewed and approved the animal procedures. Female mice from the CD1 strain were utilized to match our study examining THC’s effects on the brain lipidome ([Leishman et al., 2018]). Mice were given a single i.p. injection of either 3 mg/kg CP or 1:1:18 cremophor:ethanol:saline vehicle (please refer to the section “3 mg/kg CP Is Relevant for Synthetic Cannabinoid Abuse and Has Stronger Effects on the Female Mouse Brain Lipidome During Adolescence” for a justification of dose and use of female mice). Three different age groups were given injections: PND 35 and PND 50 adolescents, and adult mice (PND 113). At least eight mice in each age group received CP and at least eight received vehicle. Matching the THC study time course ([Leishman et al., 2018]), mice were sacrificed via rapid decapitation 2 h after injection. Brains were immediately removed and flash-frozen in liquid nitrogen, and then stored at -80°C until dissections were performed. Brains were dissected on an ice-cold dissection plate into the following regions: STR, HIPP, CER, THAL, CTX, HYP, MID, and STEM. These abbreviations for these brain areas will be used exclusively when discussing the results generated by these specific dissections. Each dissected area was immediately placed in liquid nitrogen and then stored at -80°C until used for lipid extraction.
# Tissue extracts were performed as previously described ([Bradshaw et al., 2006]; [Stuart et al., 2013]; [Raboune et al., 2014]; [Leishman et al., 2016a],[b], [2017], [2018]). First, samples were shock frozen in liquid nitrogen, weighed, and transferred to a centrifuge tube. The mass of the largest sample was multiplied by 50 to determine how many milliliters of HPLC-grade methanol (Fisher, Fair Lawn, NJ, United States) to add. Then, samples were spiked with 500 pmol deuterium-labeled NAGly (d8NAGly; Cayman Chemical, Ann Arbor, MI, United States). Samples were placed on ice in darkness for 2 h then individually homogenized and centrifuged at 19,000 × g for 20 min at 20°C. Supernatants were diluted with HPLC water (purified in house) to make a solution of 75% water, 25% supernatant. Lipids were partially purified on C18 solid phase extraction columns (Agilent, Palo Alto, CA, United States). A series of four elutions with 1.5 mL of 60%, 75%, 85%, and 100% methanol were collected ([Stuart et al., 2013]; [Leishman et al., 2016a],[b], [2018]).
# As previously described ([Bradshaw et al., 2006]; [Tan et al., 2006]; [Smoum et al., 2010]; [Stuart et al., 2013]; [Tortoriello et al., 2013]; [Raboune et al., 2014]; [Leishman et al., 2016a],[b], [2017], [2018]), samples were analyzed using an Applied Biosystems API 3000 triple quadrupole mass spectrometer with electrospray ionization (Foster City, CA, United States). Using an Agilent XDB-C18 reversed phase analytical column and optimized mobile phase gradients, 20 μL from each elution were chromatographed. Two Shimadzu 10ADvp pumps (Columbia, MD, United States) provided the pressure for gradient elution. Mobile phase A: 20% methanol, 80% water (v/v) and 1 mM ammonium acetate (Sigma, St. Louis, MO, United States). Mobile phase B: 100% methanol, 1 mM ammonium acetate. Every method run began with 0% mobile phase B, reached 100% mobile phase B flowing at 0.2 mL/min, and gradually returned to 0% mobile phase B.
# This screening library will be referred to as the lipidome when discussing data from this study. HPLC/MS/MS data were analyzed using Analyst software (Applied Biosystems) ([Bradshaw et al., 2006]; [Tan et al., 2006]; [Stuart et al., 2013]; [Tortoriello et al., 2013]; [Raboune et al., 2014]; [Leishman et al., 2016a],[b], [2017], [2018]). Chromatograms (Supplementary Figure 3) were generated by determining the retention time of analytes from the analytical column with a [M-1] or [M+1] parent peak and a fragmentation peak corresponding to the programmed values. […]
# [1] = PND 50 female mice, 3mg/kg CP 55,940
# [2] = PND 35 adolescent female mice, 3 mg/kg
smiles,measurement,setting,value
"CCCCCCC(C)(C)c1ccc([C@@H]2C[C@H](O)CC[C@H]2CCCO)c(O)c1 [CP 55,940]","N-docosahexaenoyl methionine level, Mean",[1],BDL
same,"N-docosahexaenoyl phenylalanine level, Mean",[1],PISSR
same,"N-docosahexaenoyl proline level, Mean",[1],BDL
same,"N-docosahexaenoyl serine level, Mean",[1],PISSR
same,"N-docosahexaenoyl tryptophan level, Mean",[1],BDL
same,"N-docosahexaenoyl tyrosine level, Mean",[1],BDL
same,"N-docosahexaenoyl valine level, Mean",[1],BDL
same,"N-linoleoyl GABA level, Mean",[1],PISSR
same,"N-linoleoyl alanine level, Mean",[1],3.81E-13
same,"N-linoleoyl ethanolamine level, Mean",[1],3.47E-11
same,"N-linoleoyl glycine level, Mean",[1],1.12E-13
same,"N-linoleoyl leucine level, Mean",[1],PISSR
same,"N-linoleoyl methionine level, Mean",[1],BDL
same,"N-linoleoyl phenylalanine level, Mean",[1],PISSR
same,"N-linoleoyl proline level, Mean",[1],BDL
same,"N-linoleoyl serine level, Mean",[1],1.7E-10
same,"N-linoleoyl tryptophan level, Mean",[1],BDL
same,"N-linoleoyl tyrosine level, Mean",[1],BDL
same,"N-linoleoyl valine level, Mean",[1],BDL
same,"N-nervonoyl valine level, Mean",[1],BDL
same,"N-oleoyl GABA level, Mean",[1],1.97E-12
same,"N-oleoyl alanine level, Mean",[1],2.61E-12
same,"N-oleoyl dopamine level, Mean",[1],BDL
same,"N-oleoyl ethanolamine level, Mean",[1],8.36E-11
same,"N-oleoyl glycine level, Mean",[1],5.38E-13
same,"N-oleoyl leucine level, Mean",[1],3.54E-13
same,"N-oleoyl methionine level, Mean",[1],PISSR
same,"N-oleoyl phenylalanine level, Mean",[1],6.88E-13
same,"N-oleoyl proline level, Mean",[1],BDL
same,"N-oleoyl serine level, Mean",[1],3.07E-10
same,"N-oleoyl tryptophan level, Mean",[1],BDL
same,"N-oleoyl tyrosine level, Mean",[1],1.89E-13
same,"N-oleoyl valine level, Mean",[1],PISSR
same,"N-palmitoyl GABA level, Mean",[1],6.6E-12
same,"N-palmitoyl alanine level, Mean",[1],6.9E-12
same,"N-palmitoyl ethanolamine level, Mean",[1],6.24E-11
same,"N-palmitoyl glycine level, Mean",[1],3.58E-12
same,"N-palmitoyl leucine level, Mean",[1],1.26E-12
same,"N-palmitoyl methionine level, Mean",[1],9.4E-13
same,"N-palmitoyl phenylalanine level, Mean",[1],1.3E-12
same,"N-palmitoyl proline level, Mean",[1],BDL
same,"N-palmitoyl serine level, Mean",[1],3.09E-11
same,"N-palmitoyl tryptophan level, Mean",[1],BDL
same,"N-palmitoyl tyrosine level, Mean",[1],4.12E-13
same,"N-palmitoyl valine level, Mean",[1],2.32E-13
same,"N-stearoyl GABA level, Mean",[1],7.69E-12
same,"N-stearoyl alanine level, Mean",[1],9.94E-13
same,"N-stearoyl ethanolamine level, Mean",[1],3.67E-11
same,"N-stearoyl glycine level, Mean",[1],5.58E-13
same,"N-stearoyl leucine level, Mean",[1],9.96E-13
same,"N-stearoyl methionine level, Mean",[1],5.57E-13
same,"N-stearoyl phenylalanine level, Mean",[1],1.28E-12
same,"N-stearoyl proline level, Mean",[1],BDL
same,"N-stearoyl serine level, Mean",[1],5.5E-11
same,"N-stearoyl tryptophan level, Mean",[1],BDL
same,"N-stearoyl tyrosine level, Mean",[1],1.01E-13
same,"Oleic acid level, Mean",[1],2.82E-10
same,"PGE2 level, Mean",[1],7.14E-11
same,"PhosphoLEA level, Mean",[1],1.12E-11
same,"THC level, Mean",[1],BDL
same,"2-arachidonoyl glycerol level, Mean",[2],6.64E-10
same,"2-linoleoyl glycerol level, Mean",[2],5.43E-11
same,"2-oleoyl glycerol level, Mean",[2],7.45E-10
same,"2-palmitoyl glycerol level, Mean",[2],7.93E-10
same,"6-ketoPGF1α level, Mean",[2],1.71E-11
same,"Arachidonic acid level, Mean",[2],3.33E-09
same,"Linoleic acid level, Mean",[2],2.5E-10
same,"N- stearoyl valine level, Mean",[2],1.41E-12
same,"N-arachidonoyl GABA level, Mean",[2],3.93E-11
same,"N-arachidonoyl alanine level, Mean",[2],5.15E-12
same,"N-arachidonoyl ethanolamine level, Mean",[2],5.6E-12
same,"N-arachidonoyl glycine level, Mean",[2],5.39E-12
same,"N-arachidonoyl phenylalanine level, Mean",[2],7.34E-13
same,"N-arachidonoyl taurine level, Mean",[2],1.56E-11
same,"N-docosahexaenoyl GABA level, Mean",[2],5.25E-12
same,"N-docosahexaenoyl ethanolamine level, Mean",[2],1.68E-11
same,"N-docosahexaenoyl glycine level, Mean",[2],4.59E-13
same,"N-linoleoyl alanine level, Mean",[2],4.26E-12
same,"N-linoleoyl ethanolamine level, Mean",[2],1.7E-11
same,"N-linoleoyl glycine level, Mean",[2],3.45E-13
same,"N-linoleoyl serine level, Mean",[2],6.26E-11
same,"N-oleoyl GABA level, Mean",[2],2.02E-11
same,"N-oleoyl alanine level, Mean",[2],1.14E-11
same,"N-oleoyl ethanolamine level, Mean",[2],1.79E-10
same,"N-oleoyl glycine level, Mean",[2],3.5E-12
same,"N-oleoyl leucine level, Mean",[2],3.49E-13
same,"N-oleoyl phenylalanine level, Mean",[2],1.8E-12
same,"N-oleoyl serine level, Mean",[2],2.72E-10
same,"N-oleoyl valine level, Mean",[2],3.31E-13
same,"N-palmitoyl GABA level, Mean",[2],3.44E-11
same,"N-palmitoyl alanine level, Mean",[2],3.03E-11
same,"N-palmitoyl ethanolamine level, Mean",[2],4.49E-11
same,"N-palmitoyl glycine level, Mean",[2],1.16E-11
same,"N-palmitoyl leucine level, Mean",[2],2.12E-12
same,"N-palmitoyl methionine level, Mean",[2],5.5E-12
same,"N-palmitoyl phenylalanine level, Mean",[2],4.4E-12
same,"N-palmitoyl serine level, Mean",[2],1.07E-11
same,"N-palmitoyl tyrosine level, Mean",[2],1.52E-12
same,"N-palmitoyl valine level, Mean",[2],1.65E-12
same,"N-stearoyl GABA level, Mean",[2],3.84E-11
same,"N-stearoyl alanine level, Mean",[2],1.89E-11
same,"N-stearoyl ethanolamine level, Mean",[2],3.64E-11
same,"N-stearoyl glycine level, Mean",[2],8.37E-12
